Assays:
OATP1B1 [1] = molecular target: T1, OATP1B1 (Homo sapiens, UniProt Q9Y6L6); test: in vitro; type: cell-based; conditions: oatp1b1-transfected cells
T1 sequence (Q9Y6L6 1-691): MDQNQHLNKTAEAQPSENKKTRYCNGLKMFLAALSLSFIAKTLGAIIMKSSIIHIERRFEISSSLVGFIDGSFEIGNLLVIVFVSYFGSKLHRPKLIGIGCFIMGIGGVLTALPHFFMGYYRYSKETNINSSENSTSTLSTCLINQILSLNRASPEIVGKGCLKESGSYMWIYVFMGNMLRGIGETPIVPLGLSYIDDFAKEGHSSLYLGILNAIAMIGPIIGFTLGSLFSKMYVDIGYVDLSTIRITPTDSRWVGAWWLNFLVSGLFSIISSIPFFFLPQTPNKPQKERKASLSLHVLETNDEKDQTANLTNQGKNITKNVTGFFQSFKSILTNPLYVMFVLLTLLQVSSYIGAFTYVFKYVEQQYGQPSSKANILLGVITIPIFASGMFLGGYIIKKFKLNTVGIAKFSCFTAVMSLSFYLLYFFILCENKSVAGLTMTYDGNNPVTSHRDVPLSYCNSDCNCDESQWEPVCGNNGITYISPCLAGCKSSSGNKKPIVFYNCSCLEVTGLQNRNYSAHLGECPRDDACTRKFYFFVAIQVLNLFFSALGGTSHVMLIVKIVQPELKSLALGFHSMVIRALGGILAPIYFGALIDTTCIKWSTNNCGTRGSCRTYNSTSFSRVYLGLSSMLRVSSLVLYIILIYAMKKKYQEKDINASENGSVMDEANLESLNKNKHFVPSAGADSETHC

OAT1 [2] = molecular target: T2, OAT1 (Homo sapiens, UniProt Q4U2R8); test: 3H-HDA uptake in OAT1-expressing HEK293 cells, blocked by probenecid; type: cell-based; conditions: HEK293, read-out: % inhibition at 30 μM
T2 sequence (Q4U2R8 1-563): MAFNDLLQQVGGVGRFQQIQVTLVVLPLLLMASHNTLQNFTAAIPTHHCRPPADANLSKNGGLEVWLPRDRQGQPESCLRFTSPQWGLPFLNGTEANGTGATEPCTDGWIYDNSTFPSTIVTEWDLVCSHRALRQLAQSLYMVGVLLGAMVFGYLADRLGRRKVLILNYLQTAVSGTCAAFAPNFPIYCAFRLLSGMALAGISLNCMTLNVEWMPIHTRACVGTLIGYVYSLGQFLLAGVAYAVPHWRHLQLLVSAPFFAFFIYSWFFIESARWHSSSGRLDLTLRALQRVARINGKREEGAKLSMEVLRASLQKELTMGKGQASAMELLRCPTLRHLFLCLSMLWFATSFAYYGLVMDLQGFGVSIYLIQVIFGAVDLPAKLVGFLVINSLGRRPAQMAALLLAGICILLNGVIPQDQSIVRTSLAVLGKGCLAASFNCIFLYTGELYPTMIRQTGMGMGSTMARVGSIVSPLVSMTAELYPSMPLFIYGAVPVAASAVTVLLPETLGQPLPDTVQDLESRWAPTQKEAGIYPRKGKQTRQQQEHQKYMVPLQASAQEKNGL

OAT3 [3] = molecular target: T3, OAT3 (Homo sapiens, UniProt Q8TCC7); test: 3H-HDA uptake in OAT3-expressing HEK293 cells, blocked by probenecid; type: cell-based; conditions: HEK293, read-out: % inhibition at 30 μM
T3 sequence (Q8TCC7 1-542): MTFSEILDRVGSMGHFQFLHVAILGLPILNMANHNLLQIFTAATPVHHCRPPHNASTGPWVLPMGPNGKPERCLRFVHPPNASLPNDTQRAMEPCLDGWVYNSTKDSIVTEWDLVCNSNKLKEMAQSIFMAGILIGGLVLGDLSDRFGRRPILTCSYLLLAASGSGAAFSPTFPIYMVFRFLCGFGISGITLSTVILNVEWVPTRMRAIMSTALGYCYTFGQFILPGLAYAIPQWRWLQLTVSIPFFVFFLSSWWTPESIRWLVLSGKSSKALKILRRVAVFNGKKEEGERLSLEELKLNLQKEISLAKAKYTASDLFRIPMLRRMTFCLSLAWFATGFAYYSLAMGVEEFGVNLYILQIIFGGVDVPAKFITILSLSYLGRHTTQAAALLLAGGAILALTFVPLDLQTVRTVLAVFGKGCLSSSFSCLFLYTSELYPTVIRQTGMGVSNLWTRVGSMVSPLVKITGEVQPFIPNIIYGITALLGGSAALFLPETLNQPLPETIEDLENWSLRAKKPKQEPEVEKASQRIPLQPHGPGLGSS

OATP1B1 [4] = molecular target: T1, OATP1B1; test: in vitro; conditions: hek293 cells
OAT3 [5] = molecular target: T3, OAT3; test: 3H-TDA uptake in OAT3-expressing HEK293 cells, blocked by probenecid; type: cell-based; conditions: HEK293, read-out: % inhibition at 30 μM
OATP1B1 [6] = molecular target: T1, OATP1B1; test: in vitro; conditions: hek293 cells; remark: listed apart in the source
OAT1 [7] = molecular target: T2, OAT1; test: 3H-TDA uptake in OAT1-expressing HEK293 cells, blocked by probenecid; type: cell-based; conditions: HEK293, read-out: % inhibition at 30 μM

C[C@H](CCC(=O)NCCS(=O)(=O)O)[C@H]1CC[C@H]2[C@@H]3CC[C@@H]4C[C@H](OS(=O)(=O)O)CC[C@]4(C)[C@H]3CC[C@]12C [TLS, Taurolithocholate 3-sulfate]
inhibition at 30 µM (OATP1B1 [1]): > 70%

C[C@H](CCC(=O)NCC(=O)O)[C@H]1CC[C@H]2[C@@H]3CC[C@@H]4C[C@H](O)CC[C@]4(C)[C@H]3C[C@H](O)[C@]12C [Glycodeoxycholate]
inhibition at 30 µM (OATP1B1 [1]): > 70%

O=C(O)CCCCCCCCCCCCCCC(=O)O [HDA, hexadecanedioic acid]
inhibition at 30 µM (OAT1 [2]): > 30% | inhibition at 30 µM (OAT3 [3]): > 70% | IC50 (OATP1B1 [4]): 1600 to 4000 nM

O=C(O)CCCCCCCCCCCCC(=O)O [TDA, tetradecanedioic acid]
inhibition at 30 µM (OAT3 [5]): > 70% | IC50 (OATP1B1 [6]): 1600 to 4000 nM | inhibition at 30 µM (OAT1 [7]): > 30%
